{"source": "patent US12054747B2", "about": "“Method of differentiating primordial germ cell into primordial follicle in vitro” (KYUSHU UNIVERSITY, NATIONAL UNIVERSITY CORPORATION, priority 2018, dated 2024)", "key": {"[1]": {"tested_on": "transcription factor Foxo3a localization in oocytes", "experiment": "In vitro culture of gonad in presence of PI3K inhibitor with or without pressurization; Foxo3a immunostaining", "assay_type": "cell-based, mouse", "conditions": "25 μM Ly, oocytes of 20 μm or smaller, 16th day; for proportion of oocytes in which Foxo3a was localized in the nucleus: FIG. 8A; for proportion of oocytes in which Foxo3a was localized in the cytosol: FIG. 8B", "procedure": "Specifically, first, a Transwell-COL membrane (3.0 μm pore size, 24 mm diameter) (manufactured by Corning Inc.) was set in each well of a 6-well plate, and the gonad collected in (1) were placed on a membrane. Then, 1.3 mL of medium was added to each well and culture was performed for 16 days. For artificial pressurization, AGP-3001S (registered trademark) manufactured by STREX was used to apply a hydrostatic pressure of 33.33 kPa, during the period from the 6th day to the 16th day from the start of the culture. In addition, Ly was added to the medium such that a final concentration is 25 μM, during the period from the 6th day to the 16th day from the start of the culture. Also, the medium was cultured in αM2 for 4 days and then cultured in S10. In addition, ICI 182,780 (7α,17β-[9-[(4,4,5,5,5-pentafluoropentyl)sulfinyl]nonyl]estra-1,3,5(10)-triene-3,17-diol) (manufactured by Tocris Bioscience) which is an estrogen receptor antagonist was added during the period from 5th to 9th day after the start of culture such that a final concentration in the medium is 500 nM. About half of the medium was replaced with anew medium every other day. As a control, those cultured in the same manner in the presence of Ly without pressurization were also prepared. In the gonad cultured in (2), a tissue section of the gonad was prepared by using the same method as in (1) of Reference Example 1. Then, the tissue section of the gonad obtained in (3) was immunohistochemically stained using the same method as in (4) of Example 1. […] In FIG. 7, “No Press (0 kPa)” is a gonad cultured in the presence of Ly without pressurization. “Press (33.3 kPa)” is a gonad cultured under the artificially pressurized condition and in the presence of Ly. a and e are staining images for CFP expressed under the control of the expression of the germ cell marker Stella. b and f are immunostaining images using an antibody against a transcription factor Foxo3α. c and g are immunostaining images using an antibody against the MVH of the germ cell marker. d is an image in which a nuclear-staining image using DAPI is superimposed on the staining images in a to c. h is an image in which a nuclear-staining image using DAPI is superimposed on the staining images in e to g. A scale bar represents 10 μm. Further, FIG. 8A is a graph obtained by calculating a proportion of oocytes in which the transcription factor Foxo3a is localized in the nucleus, from the immunostaining image using the antibody against the transcription factor Foxo3a in FIG. 7. FIG. 8B is a graph obtained by calculating a proportion of oocytes in which the transcription factor Foxo3a is localized in a cytosol, from the immunostaining image using the antibody against the transcription factor Foxo3a in FIG. 7."}, "[2]": {"tested_on": "oocytes in gonad of a 12.5 day-old fetus after fertilization", "experiment": "In vitro culture of gonad in presence of PI3K inhibitor; oocyte size counted by Stella-CFP fluorescence", "assay_type": "cell-based, mouse", "conditions": "25 μM Ly from 6th to 16th day of culture; observed on 16th day; FIG. 6B", "procedure": "First, a Transwell-COL membrane (3.0 μm pore size, 24 mm diameter) (manufactured by Corning Inc.) was set in each well of a 6-well plate, and the gonad collected in (1) were placed on a membrane. Then, 1.3 mL of medium was added to each well and culture was performed for 16 days. Also, the medium was cultured in αM2 for 4 days and then cultured in S10. In addition, the PI3K inhibitor LY294002 (hereinafter, may be abbreviated as “Ly”) (manufactured by Cell Signaling Technology, model number: 9901) was added to the medium such that a final concentration is 25 μM, during the period from the 6th day to the 16th day from the start of the culture. In addition, ICI 182,780 (7α,17β-[9-[(4,4,5,5,5-pentafluoropentyl)sulfinyl]nonyl]estra-1,3,5(10)-triene-3,17-diol) (manufactured by Tocris Bioscience) which is an estrogen receptor antagonist was added during the period from 5th to 9th day after the start of culture such that a final concentration in the medium is 500 nM. About half of the medium was replaced with a new medium every other day. In addition, as a control, those cultured in the same manner without adding Ly (cultured under a steady condition) were also prepared. The gonad on the 16th day from the start of culture were observed under a fluorescent stereomicroscope (manufactured by Olympus Corporation, model number: SZX16). In FIG. 6A, “Control” is a gonad cultured under a steady condition (in the absence of Ly), and “Ly” is a gonad cultured in the presence of the PI3K inhibitor LY294002. A scale bar represents 50 μm. Further, FIG. 6B is a graph in which the number of oocytes was counted using the expression of Stella-CFP as an index in FIG. 6A, and proportions of the oocytes smaller than 20 μm, 20 μm or larger and 50 μm or smaller, and larger than 50 μm were calculated."}, "[3]": {"conditions": "artificially pressurized condition (33.33 kPa)"}}, "data": [{"smiles": "O=c1cc(N2CCOCC2)oc2c(-c3ccccc3)cccc12", "note": "[Ly, LY294002]", "values": [{"measurement": "proportion of oocytes in which Foxo3a was localized in the nucleus", "setting": "[1]; [3]", "value": "about 82%"}, {"measurement": "proportion of oocytes in which Foxo3a was localized in the cytosol", "setting": "[1]; [3]", "value": "about 18%"}, {"measurement": "proportion of oocytes in which Foxo3a was localized in the nucleus", "setting": "[1]; without pressurization (0 kPa)", "value": "about 52%"}, {"measurement": "proportion of oocytes in which Foxo3a was localized in the cytosol", "setting": "[1]; without pressurization (0 kPa)", "value": "about 48%"}, {"measurement": "proportion of oocytes having a size larger than 50 μm", "setting": "[2]", "value": "about 23%"}, {"measurement": "proportion of oocytes having a size smaller than 20 μm in total oocytes", "setting": "[2]", "value": "about 29%"}, {"measurement": "proportion of oocytes with a size of 20 μm or larger and 50 μm or smaller", "setting": "[2]", "value": "about 48%"}]}]}
